# Data as given in PubChem BioAssay AID540315 (Broad Institute, 2011).
# Active and inactive are the calls of the source.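 Rule for the calls: active = compounds lowering cell viability whose fitted half-effect dose is at most ten times the top tested dose; inconclusive = flat curve with moderate viability loss, or a poor fit; inactive = the rest.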
# Test system: DRD HRASV12-transformed BJ fibroblasts viability, Alamar Blue, 48 h
# Assay: growth inhibition of HRAS-transformed DRD cells – cell-based, secondary screen, plate reader, dry powder, set 4, dose response (AID 540315)
# Settings: not given
row,Compound,AC50
1,CCOc1ccccc1-n1c(C(C)N2CCN(C(=O)COc3ccc(Cl)cc3)CC2)nc2ccccc2c1=O (centres undefined),2.16 µM
2,COC(=O)c1ccc([C@@H]2c3[nH]c4ccccc4c3C[C@@H](C(=O)OC)N2C(=O)CCl)cc1,0.604 µM
3,COc1ccc(C(c2ccc(OC)cc2)N2CCN(C(=O)c3ccc([N+](=O)[O-])o3)CC2)cc1,5.84 µM
4,O=C(NCCNC(c1ccccc1)c1ccccc1)c1ccc([N+](=O)[O-])o1,5.59 µM
5,Cc1onc(C(=O)N2CCN(C(c3ccc(F)cc3)c3ccc(F)cc3)CC2)c1[N+](=O)[O-],0.784 µM
6,Cc1onc(CC(=O)N2CCN(C(c3ccc(F)cc3)c3ccc(F)cc3)CC2)c1[N+](=O)[O-],30.9 µM
7,Cc1onc(C(=O)NCCNC(c2ccccc2)c2ccccc2)c1[N+](=O)[O-],43.8 µM
8,Cc1onc(C(=O)N2CCN(C(c3ccccc3)c3ccccc3)CC2)c1[N+](=O)[O-],2.64 µM
9,Cc1onc(C(=O)N2CCN(C(c3ccccc3)c3ccc(Cl)cc3)CC2)c1[N+](=O)[O-] (centres undefined),0.585 µM
10,Cc1onc(C(=O)N2CCN(C(c3ccc(Cl)cc3)c3ccc(Cl)cc3)CC2)c1[N+](=O)[O-],0.287 µM
11,COc1ccc(C(c2ccc(OC)cc2)N2CCN(C(=O)c3noc(C)c3[N+](=O)[O-])CC2)cc1,4.37 µM
12,O=C(c1ccc([N+](=O)[O-])o1)N1CCN(C(c2ccc(F)cc2)c2ccc(F)cc2)CC1,10.7 µM
13,Cc1onc(C(=O)N2CCCN(C(c3ccccc3)c3ccccc3)CC2)c1[N+](=O)[O-],3.87 µM

# Test system: not listed separately
# Assay: as above
# Settings: DRD HRASV12-transformed BJ fibroblasts viability, Alamar Blue, 48 h; at 48 µM (top of the series)
row,Compound,"activity change, negative = viability loss"
1,Cc1onc(C(=O)N2CCN(Cc3ccccc3)CC2)c1[N+](=O)[O-],-2.4% (inactive)
